Experimental data as given in patent US9670217B2, “Process for preparing chlorins and their pharmaceutical uses” (UNIVERSIDADE DE COIMBRA, priority 2008, dated 2017).

Columns and labels:
[1] = Absorption spectra (λmax, molar absorption coefficient); assay type: physicochemical; settings: ethanol solutions
Experimental: Absorption spectra were recorded on a Shimadzu UV-2100 spectrophotometer or with a Carry 50 Biospectrophotometer (Varian, Mulgrave, USA). Fluorescence spectra were measured with a Spex Fluorolog 3 spectrophotometer, with correction for the wavelength dependence system (RCA C31034 photomultiplier), or with a PerkinElmer LS 50 spectrofluorimeter. Transient absorption spectra were measured with an Applied Photophysics LKS 60 nanosecond laser flash photolysis kinetic spectrometer, using the third harmonic of a Spectra-Physics Quanta Ray GCR 130-01 Nd/YAG laser for excitation, a Hamamatsu 1P28 photomultiplier and a Hewlett-Packard Infinium oscilloscope (1 GS/s). Flash photolysis measurements were made in the presence of air and in argon saturated solutions. Photoacoustic calorimetry employed the same Nd/YAG laser, a home-made front-face photoacoustic cell with a 2.25 MHz Panametrics transducer (model 5676) and a Tektronix DSA 601 transient recorder. Room-temperature singlet-oxygen phosphorescence was measured at 1270 nm with a Hamamatsu R5509-42 photomultiplier, cooled to 193 K in a liquid nitrogen chamber (Products for Research model PC176TSCE005), following laser excitation of aerated solutions at 355 nm, using an adapted Applied Photophysics spectrometer. Singlet oxygen emission at 1270 nm was also monitored with a liquid nitrogen-cooled germanium detector (North Coast) coupled to a Tectronix Digitizing scope (TDS 520B), following sample excitation with 5 ns laser pulses of the third harmonic (355 nm) generated by a Q-switched Nd:YAG laser (Continuum Surelite II).
This is indicative of little aggregation between the molecules, which exist mostly as monomers at these concentrations in the solvents studied. Table 1 presents typical red and infrared molar absorption coefficients (εmax) and wavelength maxima. The same table also presents representative fluorescence quantum yields (ΦF) of Luzitins. The fluorescence quantum yields decrease of these molecules decrease in the presence of chlorine substituents, a fingerprint of the heavy atom effect expected for such molecules.

[2] = Photobleaching under 748 nm diode laser irradiation; assay type: physicochemical; settings: PBS:methanol; 100 mW laser irradiation at 748 nm
Description: The irradiation of bacteriochlorins in the photobleaching experiments employed the 748 nm Lynx diode laser. For animal studies we employed a costumer-made Hamamatsu diode laser, type LA0873. S/N M070301, which delivered 140 mW at 748 nm. This diode laser was controlled by a ThorLabs 500 mA ACC/APC Laser Diode Controller and in-house electronics. The laser energies of this and the other higher-energy lasers employed in this work were regularly checked with an Ophir model AN/2E laser power meter.
Photobleaching experiments were conducted in PBS. PBS:methanol (50:50) and methanol solutions. The solutions were irradiated in a cuvette with an optical path of 1 cm and the Lynx diode laser. The initial absorption of the solutions was ca. 0.8. The mechanism of photobleaching was assessed with the irradiation of the sensitizer using the Hamamatsu diode laser at 80 mW. The sensitizer was irradiated in PBS and in the presence of ascorbic acid or azide.
The chemical stability of the compounds was studied exposing them to light, air, and pH changes. The most significant degradation occurs for aerated solutions irradiated by light of the appropriate wavelength. In such circumstances the photobleaching of the compounds follows a first-order rate and is proportional to the energy of the incident laser light. In general, it was also observed that the photobleaching rate increases with the amount of water present in the solution. Bennett reported the photoconversion of Foscan® (m-THPC) and of the analogous bacteriochlorin (m-THPB) in PBS:methanol (50:50). Scherz reported the photoconversion of Tookad® in acetone and Triton-X:PBS [3]. For the purpose of comparing the photostability of Luzitins with that of Foscan® and Tookad®, we present in Table 2 the half-lives (t1/2) of representative drugs described herein, together with those of Foscan and Tookad® normalized for a laser power of 100 mW.
Luzitin-FMet was dissolved in PBS:methanol (2:3), transferred to a 1 cm quartz cell and its absorption spectrum was registered, FIG. 6. The quartz cell was then placed in the beam of the 748 nm Lynx diode laser, previously unfocused to have a beam diameter coincident with the window of the quartz cell. The laser power measured under these conditions was 28.8 mW. Every 5 minutes the irradiation was interrupted and a new absorption spectrum was registered. This procedure was followed for 65 minutes. The photobleaching follows the kinetics of a first-order reaction in the time window of the experiment. […] Whereas the bacteriochlorin peak at 743 nm is reduced from an absorbance of 1.128 to 0.337, the absorption of the chlorin only increases from 0.114 to 0.151. Taking into consideration the molar absorption coefficients of the compounds at these wavelengths, it is clear that whereas 70% of the bacteriochlorin is destroyed during the irradiation, only a few percent of chlorin are formed.
The half-lives of other bacteriochlorins normalized 100 mW laser irradiation at 748 nm are presented in […], together with the literature data for the photodegradation of Foscan® and Tookad® normalized for the same light intensity. It was also observed that the half-live to Luzitin-Cl is increased by a factor of 30 when the PBS solution of the photosensitizer is saturated with Argon, which reduces the oxygen concentration in the solution.

[3] = n-octanol:water partition coefficient (shake-flask); assay type: physicochemical
Experimental: The n-octanol:water partition coefficients (CP) were measured using a minor modification of the shake-flask method described by some of us in the literature. The modification concerned the excitation of the absorption band ca 500 nm and the collection of the fluorescence in the red/IR region.

[4] = tested on: A-549 (human non-small cell lung cancer); experiment: Cytotoxicity in the dark, resazurin assay; assay type: cell-based; parameters: unit not given here; settings: A-549, dark
Experimental: The cell lines employed in laser irradiation were the HT-29 (human colon carcinoma), PC-3 (human prostate carcinoma), SW2 (human small cell lung cancer), A-549 (human non-small cell lung cancer). S91/I3 (mouse melanoma) and CT26 (mouse colon carcinoma). They were used both for cytotoxicity and photocytotoxicity experiments. PC-3. SW2 and S91113 cells were cultured in RPMI-1640 medium (Sigma-Aldrich, Steinheim, Germany) and HT-29, A-549 and CT26 cells were cultured in Dulbecco's Modified Eagle Medium (DMEM) (Cambrex Bioscience, Verviers, Belgium). […] For the in vitro studies, cells at 85-90% confluence, were detached with Trypsin-Versene-EDTA solution (Cambrex Bioscience, Verviers, Belgium), counted and seeded in flat-bottom 96-well plates at the desired densities.
Cell viability assay. In the end of the experiences cell viability was evaluated by the resazurin reduction assay. […] The absorbance values of each well were measured at 540 nm and 630 nm using a microplate reader Multiskan Ex (Thermo-Electron Corporation, Vartaa, Finland).
Cytotoxicity. […] After the incubation the cell viability was evaluated. […] Cytotoxicity was quantified by expressing cell death relatively to untreated cells (% of control cells). […]

[5] = tested on: PC-3 (human prostate carcinoma); experiment: Cell photosensitization, 748 nm diode laser, resazurin; assay type: cell-based; settings: 6 J/cm^2 diode laser irradiation at 28.5 mW
[6] = tested on: A-549 (human non-small cell lung carcinoma); experiment: as above; assay type: cell-based
[7] = tested on: CT26 (murine colon carcinoma); experiment: as above; assay type: cell-based, mouse; settings: 6 J/cm^2 diode laser irradiation at 28.5 mW

CNS(=O)(=O)c1ccc(F)c(-c2c3nc(c(-c4c(F)ccc(S(=O)(=O)NC)c4F)c4ccc([nH]4)c(-c4c(F)ccc(S(=O)(=O)NC)c4F)c4nc(c(-c5c(F)ccc(S(=O)(=O)NC)c5F)c5ccc2[nH]5)CC4)CC3)c1F [Luzitin-F2Met, 5,10,15,20-tetrakis(2,6-fluoro-3-N-methylsulfamoylphenyl)bacteriochlorin]
λmax [1]: 742.5 nm | εmax ([1]; corrected for the chlorin content): 78,000^d) M^−1 cm^−1 | t1/2 (photobleaching half-life) [2]: 6,480 sec | log KOW (n-octanol:water partition coefficient) [3]: 2.7 | highest concentration that causes relatively no effect in viability in the dark [4]: 50 | concentration of sensitizer required to kill 90% of cells (LD90) [5]: 0.5 µM | cell kill ([6]; 0.5 μM, laser light dose 6 J/cm^2, incubation 18 hours): 100% | concentration of sensitizer required to kill 90% of cells (LD90) ([6]; 6 J/cm^2 diode laser irradiation at 28.5 mW): 0.5 µM | concentration of sensitizer required to kill 90% of cells (LD90) [7]: 1.0 µM
